{
  "source": "patent US20240269238A1",
  "about": "“Therapeutic Regimens and Methods for Reducing Body Weight in a Subject with Fatty Liver Disease using a GLP-1R and GCGR Agonist” (Spitfire Pharma LLC, priority 2022, published 2024)",
  "assay_type_in_all_cases": "in vivo, human",
  "key": {"[1]": {"system": "plasma lipids and lipoproteins", "test": "Phase 1 study NCT0456124 (Example 2): lipoprotein profiling by NMR and lipidomic profiling by UHPLC-MS", "experimental": "(§1) To test the lipid-lowering effects of pemvidutide, an analysis of Phase I clinical trial (NCT0456124) data was carried out. The subjects with overweight/obesity (BMI 25-40 kg/m^2) were randomized at 1 site in Australia (NCT0456124). Subjects were randomized 4:1 pemvidutide:placebo, with placebos pooled. […] Lipoprotein and glycoprotein profiling covering 33 lipoprotein related parameters was performed by ^1H-NMR on fasting plasma samples obtained at Day −1 (baseline), Day 43, and Day 84 from the 34 subjects who completed NCT0456124. Lipidomic profiling covering 600 lipid species was performed by ultra-high performance liquid chromatography-mass spectrometry on fasting plasma samples obtained at Day −1 (baseline), Day 43, and Day 84 from the 34 subjects who completed NCT0456124. For the lipid profiling, plasma fractionation was performed either using methanol to extract fatty acyls, bile acids, steroids, and lyso-glycerophospholipids, or using a chloroform/methanol mix to extract glycerolipids, cholesteryl esters, sphingolipids, and glycerophospholipids. Lipid classification followed the classification system proposed by Fahy et al. (J. Lipid Res. 2005; 46:839-861) and the LIPID MAPS initiative (http://www.lipidmaps.org) (see FIG. 8).\nThe color code represents the log 2 (robust fold-change) with blue colors denoting reduced lipoproteins (negative fold-changes) and red colors denoting increased lipoproteins (positive fold-changes).\nGiven the observed changes in the total cholesterol, triglycerides and lipoproteins, an evaluation of the serum lipid composition covering 600 lipid species at Day −1 (baseline), Day 43, and Day 84 from the 34 subjects who completed NCT0456124 was performed. Results are presented in FIG. 10 as log 2 pairwise fold change with blue colors denoting a reduction in the lipid relative to baseline, and red an increase. The grey/black bars indicate significant p-values of Wilcoxon test.\nThe horizontal dashed line represents the lower limit of significance, while the vertical lines show a fold-change from baseline of ±0.75 on the log 2 scale."}, "[2]": {"test": "Phase 1 12-week study in overweight/obese subjects (NCT0456124, Example 2): key pharmacodynamic endpoints", "experimental": "as §1"}, "[3]": {"test": "Phase 1b 24-week NAFLD study (Example 3): body weight loss", "conditions": "for weight loss: Week 24", "text": "Provided herein is disclosure of a 12-week extension study of the study provided in Example 1, providing a 24-week a Phase 1b, randomized, double-blind, placebo-controlled study to assess the effects of pemvidutide (also termed herein as ALT-801), the safety of pemvidutide and effects on weight loss, hepatic fat fraction, anthropometric parameters, lipid metabolism, as well as inflammatory, fibrosis and other markers in diabetic and non-diabetic (type 2 diabetes) overweight and obese (BMI≥28.0 kg/m^2) subjects with NAFLD (defined as liver fat content (LFC) by MRI-PDFF ≥10%; absence of significant fibrosis, defined as FibroScan® LSM ≤10 kPa), alanine aminotransferase (ALT) and aspartate aminotransferase (AST) laboratory values of ≤75 IU/L and HbA1c <9.5. Men and women aged 18-65 years were studied. Diabetic subjects were defined as those that have undergone stable dose (≥3 months) metformin or SLGT-2 therapy and no use of insulin, sulfonylureas, DPP-4, GLP-1 treatment; Ninety-four (94) subjects were enrolled in the initial 12-week Phase 1b NAFLD trial and 83 subjects who completed were invited to receive a total of 12 additional weeks of blinded treatment. Of those subjects, 66 consented to rollover, of which 64 were eligible to participate.\nThe primary endpoint of this study was a reduction in liver fat content (LFC) by MRI-PDFF at Week 24 compared to Week 0 (zero). Key secondary endpoints include percent (%) weight loss at Week 24 compared to Week 0 (zero), and liver inflammation by alanine aminotransferase (ALT) levels and corrected T1 (cT1) imaging at Week 24 as compared to Week 0 (zero). Adverse events (AEs), including serious and severe AEs, AEs leading to discontinuation, GI tolerability, vital signs, and glycemic control including fasting glucose and HbA1c levels were also measured."}},
  "data": [
    {"smiles": "CC[C@H](C)[C@H](NC(=O)[C@H](Cc1ccccc1)NC(=O)[C@H](CCC(=O)O)NC(=O)[C@@H]1CCCCNC(=O)CC[C@H](NC(=O)[C@H](CC(=O)O)NC(=O)[C@H](CC(C)C)NC(=O)[C@H](Cc2ccc(O)cc2)NC(=O)[C@H](CCCCN)NC(=O)[C@H](CO)NC(=O)[C@H](Cc2ccc(O)cc2)NC(=O)[C@H](CC(=O)O)NC(=O)[C@H](CO)NC(=O)[C@@H](NC(=O)[C@H](Cc2ccccc2)NC(=O)[C@@H](NC(=O)CNC(=O)[C@H](CCC(N)=O)NC(=O)C(C)(C)NC(=O)[C@@H](N)Cc2c[nH]cn2)[C@@H](C)O)[C@H](C)O)C(=O)N[C@@H](CCCCNC(=O)C2O[C@@H](OCCCCCCCCCCCCCCCCCC(=O)O)C(O)C(O)[C@@H]2O)C(=O)N[C@@H](C)C(=O)N[C@@H](C)C(=O)N1)C(=O)N[C@@H](CCC(N)=O)C(=O)N[C@@H](Cc1c[nH]c2ccccc12)C(=O)N[C@@H](CC(C)C)C(=O)N[C@@H](CC(C)C)C(=O)N[C@@H](CCC(N)=O)C(=O)N[C@H](C(N)=O)[C@@H](C)O", "note": "(some centres unmarked) [ALT-801, Pemvidutide]", "values": [
      {"measurement": "phosphatidyl-ethanolamine (PE) glycerophospholipids level", "setting": "[1]; 1.8 mg", "value": "significantly reduced atherosclerotic plaque forming phosphatidyl-ethanolamine (PE) glycerophospholipids level"},
      {"measurement": "pro-atherogenic lyso-PC levels", "setting": "[1]; 1.8 mg", "value": "significantly reduced pro-atherogenic lyso-PC levels"},
      {"measurement": "number of VLDL and LDL particles and of smaller HDL particles (2D-NMR)", "setting": "[1]; Day 43 and Day 84 vs Day -1", "value": "tend to be reduced"},
      {"measurement": "serum lipid levels (glycerolipids, glycerophospholipids, sphingolipids)", "setting": "[1]; within 12 weeks of treatment", "value": "significantly reduced serum lipid levels"},
      {"measurement": "Apoprotein B, change from baseline, mean", "setting": "[2]; 1.2 mg weekly, 12 weeks", "value": "−45.4", "unit": "%"},
      {"measurement": "BMI, change from baseline, mean", "setting": "[2]; 1.2 mg weekly, 12 weeks", "value": "−4.8", "unit": "%"},
      {"measurement": "Diastolic BP, change from baseline, mean", "setting": "[2]; 1.2 mg weekly, 12 weeks", "value": "−4.7", "unit": "%"},
      {"measurement": "HDL cholesterol, change from baseline, mean", "setting": "[2]; 1.2 mg weekly, 12 weeks", "value": "−16.7", "unit": "%"},
      {"measurement": "LDL cholesterol, change from baseline, mean", "setting": "[2]; 1.2 mg weekly, 12 weeks", "value": "−18.4", "unit": "%"},
      {"measurement": "Systolic BP, change from baseline, mean", "setting": "[2]; 1.2 mg weekly, 12 weeks", "value": "−10.2", "unit": "%"},
      {"measurement": "Total cholesterol, change from baseline, mean", "setting": "[2]; 1.2 mg weekly, 12 weeks", "value": "−20.0", "unit": "%"},
      {"measurement": "Triglycerides, change from baseline, mean", "setting": "[2]; 1.2 mg weekly, 12 weeks", "value": "−37.0", "unit": "%"},
      {"measurement": "Weight loss, change from baseline, mean", "setting": "[2]; 1.2 mg weekly, 12 weeks (n = 7)", "value": "−4.9", "unit": "%"},
      {"measurement": "mean body weight loss, placebo adjusted", "setting": "[2]; 1.8 mg dose level, 12 weeks", "value": 8.7, "unit": "%"},
      {"measurement": "mean body weight loss", "setting": "[2]; 1.8 mg dose level, 12 weeks of weekly treatment", "value": 10.3, "unit": "%"},
      {"measurement": "subjects achieving at least 10% body weight loss", "setting": "[2]; 1.8 mg group, week 12", "value": "over half"},
      {"measurement": "subjects losing at least 5% of body weight", "setting": "[2]; 1.8 mg group, week 12", "value": "all subjects lost at least 5% of their body weight"},
      {"measurement": "Apoprotein B, change from baseline, mean", "setting": "[2]; 1.8 mg weekly, 12 weeks", "value": "−23.4", "unit": "%"},
      {"measurement": "BMI, change from baseline, mean", "setting": "[2]; 1.8 mg weekly, 12 weeks", "value": "−10.4", "unit": "%"},
      {"measurement": "Diastolic BP, change from baseline, mean", "setting": "[2]; 1.8 mg weekly, 12 weeks", "value": "−7.1", "unit": "%"},
      {"measurement": "HDL cholesterol, change from baseline, mean", "setting": "[2]; 1.8 mg weekly, 12 weeks", "value": "−30.3", "unit": "%"},
      {"measurement": "LDL cholesterol, change from baseline, mean", "setting": "[2]; 1.8 mg weekly, 12 weeks", "value": "−25.6", "unit": "%"},
      {"measurement": "Systolic BP, change from baseline, mean", "setting": "[2]; 1.8 mg weekly, 12 weeks", "value": "−12.5", "unit": "%"},
      {"measurement": "Total cholesterol, change from baseline, mean", "setting": "[2]; 1.8 mg weekly, 12 weeks", "value": "−28.0", "unit": "%"},
      {"measurement": "Triglycerides, change from baseline, mean", "setting": "[2]; 1.8 mg weekly, 12 weeks", "value": "−37.9", "unit": "%"},
      {"measurement": "Weight loss, change from baseline, mean", "setting": "[2]; 1.8 mg weekly, 12 weeks (n = 9)", "value": "−10.3", "unit": "%"},
      {"measurement": "Apoprotein B, change from baseline, mean", "setting": "[2]; 2.4 mg weekly, 12 weeks", "value": "−16.8", "unit": "%"},
      {"measurement": "BMI, change from baseline, mean", "setting": "[2]; 2.4 mg weekly, 12 weeks", "value": "−7.0", "unit": "%"},
      {"measurement": "Diastolic BP, change from baseline, mean", "setting": "[2]; 2.4 mg weekly, 12 weeks", "value": "−6.0", "unit": "%"},
      {"measurement": "HDL cholesterol, change from baseline, mean", "setting": "[2]; 2.4 mg weekly, 12 weeks", "value": "−36.0", "unit": "%"},
      {"measurement": "LDL cholesterol, change from baseline, mean", "setting": "[2]; 2.4 mg weekly, 12 weeks", "value": "−23.9", "unit": "%"},
      {"measurement": "Systolic BP, change from baseline, mean", "setting": "[2]; 2.4 mg weekly, 12 weeks", "value": "−17.4", "unit": "%"},
      {"measurement": "Total cholesterol, change from baseline, mean", "setting": "[2]; 2.4 mg weekly, 12 weeks", "value": "−27.7", "unit": "%"},
      {"measurement": "Triglycerides, change from baseline, mean", "setting": "[2]; 2.4 mg weekly, 12 weeks", "value": "−29.2", "unit": "%"},
      {"measurement": "Weight loss, change from baseline, mean", "setting": "[2]; 2.4 mg weekly, 12 weeks (n = 11)", "value": "−9.0", "unit": "%"},
      {"measurement": "weight loss (in words)", "setting": "[3]; Week 24 compared to Week 12", "value": "continued weight loss"},
      {"measurement": "weight loss", "setting": "[3]; diabetic subjects", "value": 5.3, "unit": "%"},
      {"measurement": "weight loss", "setting": "[3]; non-diabetic subjects", "value": 7.2, "unit": "%"}
    ]}
  ]
}
